Laboratory results reported in publication PMC10233829 (ACS Omega, 2023).
Values after ≈ are worked out from the molar mass of the structure shown. Read-outs that look alike come from different tables or passages of the source.

Tests used:
[1] = tested on: M. tuberculosis H37Rv; assay: Tuberculostatic activity, Microplate Alamar Blue Assay (MIC); assay type: cell-based, Mycobacterium tuberculosis; settings: Mycobacterium tuberculosis, H37RV, read-out: MIC M. tuberculosis H37Rv
[2] = tested on: M. tuberculosis Spec. 192; assay: as above; assay type: cell-based; settings: Mycobacterium tuberculosis, MABA, read-out: MIC M. tuberculosis Spec. 192 (sensitive to tuberculostatics)
[3] = tested on: PC3 cells; assay: MTT assay, cytotoxic activity; assay type: cell-based, human; settings: Homo sapiens, PC-3, 72 h, MTT, 72 h
Description: Metastatic prostate cancer (PC3) and human immortal keratinocyte (HaCaT) cell lines were purchased from the American Type Culture Collection (ATCC, Rockville, MD, USA) and cultured in MEM (minimal essential medium, Thermo Sci, USA), RPMI 1640 (Roswell Park Memorial Institute, Biowest SAS, France), and DMEM (Dulbecco’s Modified Eagle’s Medium, Biowest SAS, France). Cells were seeded in 6 mL medium in a tissue culture flask (50 mL) in a 37 °C/5% CO2 humidified incubator. […] MTT analysis was performed according to a previous study.[59] Untreated cells were used as controls. Cell absorbance results were inserted into the formula for the relative MTT level (%). It allows to calculate the viability of cells under the influence of the tested compounds. Cell viability was expressed as the percentage of MTT reduction in cells treated with tested compounds compared to the control sample. The relative MTT level was calculated using the formula [100%] = A/B × 100% where A—the test sample absorbance and B—the control sample absorbance.

[4] = MTT assay, cytotoxic activity; assay type: cell-based; settings: human
Description: Cells were seeded in 6 mL medium in a tissue culture flask (50 mL) in a 37 °C/5% CO2 humidified incubator. […] MTT analysis was performed according to a previous study.[59] Untreated cells were used as controls. Cell absorbance results were inserted into the formula for the relative MTT level (%). It allows to calculate the viability of cells under the influence of the tested compounds. Cell viability was expressed as the percentage of MTT reduction in cells treated with tested compounds compared to the control sample. The relative MTT level was calculated using the formula [100%] = A/B × 100% where A—the test sample absorbance and B—the control sample absorbance.

[5] = tested on: S. aureus NCTC 4163; assay: MIC, twofold microdilution, standard strain; assay type: cell-based; settings: Staphylococcus aureus, NCTC4163, 18 h
[6] = tested on: S. aureus ATCC 25923; assay: MIC, twofold microdilution, standard strain; assay type: cell-based; settings: Staphylococcus aureus, ATCC25923, 18 h
[7] = tested on: S. aureus ATCC 6538; assay: MIC, twofold microdilution, standard strain; assay type: cell-based, Staphylococcus aureus; settings: Staphylococcus aureus, ATCC6538; standard strain, 18 h
[8] = tested on: S. aureus ATCC 29213; assay: MIC, twofold microdilution, standard strain; assay type: cell-based; settings: Staphylococcus aureus, ATCC29213, 18 h
[9] = tested on: S. epidermidis ATCC 12228; assay: MIC, twofold microdilution, standard strain; assay type: cell-based; settings: Staphylococcus epidermidis, ATCC12228, 18 h
[10] = tested on: S. epidermidis ATCC 35984; assay: MIC, twofold microdilution, standard strain; assay type: cell-based; settings: Staphylococcus epidermidis, ATCC35984, 18 h
[11] = tested on: P. aeruginosa ATCC 15442; assay: MIC, twofold microdilution, standard strain; assay type: cell-based, Pseudomonas aeruginosa; settings: Pseudomonas aeruginosa, ATCC15442; standard strain, 18 h
[12] = tested on: E. coli ATCC 25922; assay: MIC, twofold microdilution, standard strain; assay type: cell-based, Escherichia coli; settings: Escherichia coli, ATCC25922; standard strain, 18 h
[13] = tested on: S. aureus 180; assay: MIC, twofold microdilution, clinical strain; assay type: cell-based; settings: Staphylococcus aureus, 18 h
[14] = tested on: S. aureus 5595; assay: MIC, twofold microdilution, clinical strain; assay type: cell-based; settings: Staphylococcus aureus, 18 h
[15] = tested on: S. aureus T5595; assay: MIC, twofold microdilution, clinical strain; assay type: cell-based, Staphylococcus aureus; settings: for MIC: Staphylococcus aureus, T5595, 18 h
[16] = tested on: S. aureus T5591; assay: MIC, twofold microdilution, clinical strain; assay type: cell-based, Staphylococcus aureus; settings: for MIC: Staphylococcus aureus, T5591, 18 h
[17] = tested on: S. epidermidis 4341; assay: MIC, twofold microdilution, clinical strain; assay type: cell-based; settings: Staphylococcus epidermidis, 18 h
[18] = tested on: S. epidermidis 5253; assay: MIC, twofold microdilution, clinical strain; assay type: cell-based, Staphylococcus epidermidis; settings: for MIC: Staphylococcus epidermidis, 5253, 18 h
[19] = tested on: S. epidermidis KR4243/1; assay: MIC, twofold microdilution, clinical strain; assay type: cell-based; settings: Staphylococcus epidermidis, 18 h
[20] = tested on: S. pasteuri KR 4358; assay: MIC, twofold microdilution, clinical strain; assay type: cell-based; settings: Staphylococcus pasteuri, KR4358, 18 h
[21] = tested on: P. aeruginosa 37; assay: MIC, twofold microdilution, clinical strain; assay type: cell-based; settings: Pseudomonas aeruginosa, 18 h
[22] = tested on: P. aeruginosa 659; assay: MIC, twofold microdilution, clinical strain; assay type: cell-based; settings: Pseudomonas aeruginosa, 18 h
[23] = tested on: E. coli 951; assay: MIC, twofold microdilution, clinical strain; assay type: cell-based; settings: Escherichia coli, 18 h
[24] = tested on: E. coli 520; assay: MIC, twofold microdilution, clinical strain; assay type: cell-based; settings: Escherichia coli, 18 h
[25] = tested on: E. coli 600; assay: MIC, twofold microdilution, clinical strain; assay type: cell-based, Escherichia coli; settings: Escherichia coli, 600, 18 h
[26] = tested on: E. cloacae 8; assay: MIC, twofold microdilution, clinical strain; assay type: cell-based, Escherichia cloacae; settings: Enterobacter cloacae, 8; clinical strain, 18 h
[27] = tested on: K. pneumoniae 28; assay: MIC, twofold microdilution, clinical strain; assay type: cell-based; settings: Klebsiella pneumoniae, 18 h
[28] = tested on: K. pneumoniae 510; assay: MIC, twofold microdilution, clinical strain; assay type: cell-based, Klebsiella pneumoniae; settings: Klebsiella pneumoniae, 510; clinical strain, 18 h
[29] = tested on: Staphylococci (standard strains); assay: MIC, standard Gram-positive strains as a panel; assay type: cell-based, S. aureus, S. epidermidis; settings: standard Gram-positive strains of Table 1; read-out: MIC toward standard Staphylococci (range over strains)
[30] = tested on: clinical bacterial strains; assay: MIC, clinical isolates as groups of strains; assay type: cell-based
[31] = HaCaT cells (immortal keratinocytes), MTT, 72 h, normal cell line, read-out: IC50 HaCaT

SMILES	MIC [2]	IC50 [3]	MIC [5]	MIC [6]	MIC [7]	MIC [8]	MIC [9]	MIC [10]	MIC [11]	MIC [12]	MIC [13]	MIC [14]	MIC [15]	MIC [16]	MIC [17]	MIC [18]	MIC [19]	MIC [20]	MIC [21]	MIC [22]	further results
NNC(=O)c1ccncc1 [isoniazid (INH), isoniazid, reference compound]	0.125 µg/mL (≈ 0.911 µM)																				MIC [1]: 0.125 µg/mL (≈ 0.911 µM)
COc1cccc2c1C(=O)c1c(O)c3c(c(O)c1C2=O)C[C@@](O)(C(=O)CO)C[C@@H]3O[C@H]1C[C@H](N)[C@H](O)[C@H](C)O1 [doxorubicin, reference compound]		0.3 ± 0.12 µM																			IC50 at 72 h [4]: 0.3 ± 0.11 µM
O=C(O)c1cn(C2CC2)c2cc(N3CCN(CC(=O)N4CCN(c5cc6c(cc5F)c(=O)c(C(=O)O)cn6C5CC5)CC4)CC3)c(F)cc2c1=O [Compound 17, CP–Acetyl–CP Dimer]	32 µg/mL (≈ 45.5 µM)	88.4 ± 10.6 µM	0.4 µg/mL (≈ 0.569 µM)	1.6 µg/mL (≈ 2.28 µM)	0.2 µg/mL (≈ 0.285 µM)	0.8 µg/mL (≈ 1.14 µM)	0.2 µg/mL (≈ 0.285 µM)	0.4 µg/mL (≈ 0.569 µM)	> 25.6 µg/mL	6.4 µg/mL (≈ 9.11 µM)	1.6 µg/mL (≈ 2.28 µM)	0.4 µg/mL (≈ 0.569 µM)	0.8 µg/mL (≈ 1.14 µM)	1.6 µg/mL (≈ 2.28 µM)	25.6 µg/mL (≈ 36.4 µM)	12.8 to 25.6 µg/mL (≈ 18.2 to 36.4 µM)	0.2 µg/mL (≈ 0.285 µM)	1.6 µg/mL (≈ 2.28 µM)	> 25.6 µg/mL	> 25.6 µg/mL	MIC S. epidermidis 5253 ([18]; 18 h): 25.6 µg/mL (≈ 36.4 µM); MIC [23]: > 25.6 µg/mL; MIC [24]: 3.2 µg/mL (≈ 4.55 µM); MIC [25]: 12.8 µg/mL (≈ 18.2 µM); MIC [26]: 25.6 µg/mL (≈ 36.4 µM); MIC [27]: > 25.6 µg/mL; MIC [28]: > 25.6 µg/mL; MIC ([1]; MABA): 32 µg/mL (≈ 45.5 µM); IC50 at 72 h [4, 31]: 41.3 ± 5.2 µM; MIC [29]: 0.2 to 1.6 µg/mL (≈ 0.285 to 2.28 µM)
O=C(O)c1cn(C2CC2)c2cc(N3CCN(C(=O)CC(F)(F)F)CC3)c(F)cc2c1=O [Compound 14, 7-[4-(3,3,3-Trifluoropropionyl)-piperazin-1-yl]-1-cyclopropyl-6-fluoro-4-oxo-1,4-dihydro-quinoline-3-carboxylic Acid]	64 µg/mL (≈ 145 µM)	63.4 ± 5.3 µM	0.4 µg/mL (≈ 0.906 µM)	0.4 µg/mL (≈ 0.906 µM)	0.4 µg/mL (≈ 0.906 µM)	0.4 µg/mL (≈ 0.906 µM)	0.4 µg/mL (≈ 0.906 µM)	0.4 µg/mL (≈ 0.906 µM)	> 25.6 µg/mL	0.8 µg/mL (≈ 1.81 µM)	0.5 µg/mL (≈ 1.13 µM)	0.5 µg/mL (≈ 1.13 µM)	0.1 to 0.2 µg/mL (≈ 0.227 to 0.453 µM)	0.1 to 0.2 µg/mL (≈ 0.227 to 0.453 µM)	> 25.6 µg/mL	> 25.6 µg/mL	0.1 µg/mL (≈ 0.227 µM)	0.2 µg/mL (≈ 0.453 µM)	> 25.6 µg/mL	> 25.6 µg/mL	MIC S. aureus T5595 ([15]; 18 h): 0.2 µg/mL (≈ 0.453 µM); MIC S. aureus T5591 ([16]; 18 h): 0.2 µg/mL (≈ 0.453 µM); MIC [23]: > 25.6 µg/mL; MIC [24]: 0.4 µg/mL (≈ 0.906 µM); MIC [25]: 0.8 µg/mL (≈ 1.81 µM); MIC [26]: 2 µg/mL (≈ 4.53 µM); MIC [27]: > 25.6 µg/mL; MIC [28]: > 25.6 µg/mL; MIC ([1]; MABA): 64 µg/mL (≈ 145 µM); IC50 at 72 h [4, 31]: > 100 µM; times more powerful than CP ([30]; S. aureus T5595 and T5591): 1.25–2.5 times; MIC ([30]; clinical strains, read-out: MIC against selected E. coli and E. cloacae strains): 0.1 to 0.8 µg/mL (≈ 0.227 to 1.81 µM)
